{"source": "patent US11446287B2", "about": "“Compounds and methods for EP300 or CBP modulation and indications therefor” (Opna Immuno-Oncology SA, priority 2019, dated 2022)"}
{"target": "T1, Recombinant human CBP containing the bromodomain (CBP-BD (1043-1159)) (Homo sapiens, UniProt Q92793)", "T1 construct": "Recombinant human CBP bromodomain (CBP-BD (1043-1159)); made in house; host or cells: E. coli BL21-CodonPlus (DE3), modified pET vector", "T1 sequence (Q92793 1081-1197)": "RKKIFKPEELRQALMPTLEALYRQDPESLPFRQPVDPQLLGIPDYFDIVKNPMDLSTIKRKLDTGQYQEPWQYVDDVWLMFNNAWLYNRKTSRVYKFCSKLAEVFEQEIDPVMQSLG", "experiment": "CBP Alphascreen binding assay", "conditions": "read-out: CREBBP (CBP) IC50", "how_it_was_run": "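Buffer: 50 mM HEPES pH 7.5, 50 mM NaCl, 0.01% BSA, 0.01% Triton X-100, 2 mM DTT. The signal was normalised to plate controls and fitted with a four-parameter curve to give IC50.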", "units": {"IC50": "nM"}}
{"smiles": "Cc1noc(C)c1-c1cnc2c(c1)c(-c1cnn(C(C)(C)C(=O)O)c1)cn2C(c1ccccn1)C1CCCC1", "note": "(centres unmarked) [P-0035, 2-(4-(1-(cyclopentyl(pyridin-2-yl)methyl)-5-(3,5-dimethylisoxazol-4-yl)-1H-pyrrolo[2,3-b]pyridin-3-yl)-1H-pyrazol-1-yl)-2-methylpropanoic acid]", "IC50": "0.1 to 1000"}
{"smiles": "Cc1noc(C)c1-c1cnc2c(c1)c(-c1cnn(CC(=O)O)c1)cn2C(c1ccccn1)C1CCCC1", "note": "(centres unmarked) [P-0036, 2-(4-(1-(cyclopentyl(pyridin-2-yl)methyl)-5-(3,5-dimethylisoxazol-4-yl)-1H-pyrrolo[2,3-b]pyridin-3-yl)-1H-pyrazol-1-yl)acetic acid]", "IC50": "0.1 to 1000"}
{"smiles": "Cc1noc(C)c1-c1cnc2c(c1)c(-c1cnn(CC(C)(C)O)c1)cn2C(c1ccccn1)C1CCCC1", "note": "(centres unmarked) [P-0037, 1-(4-(1-(cyclopentyl(pyridin-2-yl)methyl)-5-(3,5-dimethylisoxazol-4-yl)-1H-pyrrolo[2,3-b]pyridin-3-yl)-1H-pyrazol-1-yl)-2-methylpropan-2-ol]", "IC50": "1000 to 8000"}
{"smiles": "Cc1noc(C)c1-c1cnc2c(c1)c(-c1ccc(C(=O)O)c(Cl)c1)cn2C(c1ccccn1)C1CCCC1", "note": "(centres unmarked) [P-0038, 2-chloro-4-(1-(cyclopentyl(pyridin-2-yl)methyl)-5-(3,5-dimethylisoxazol-4-yl)-1H-pyrrolo[2,3-b]pyridin-3-yl)benzoic acid]", "IC50": "0.1 to 1000"}
{"smiles": "COC(=O)c1cc(-c2cn(C(c3ccccn3)C3CCCC3)c3ncc(-c4c(C)noc4C)cc23)ccn1", "note": "(centres unmarked) [P-0040, methyl 4-(1-(cyclopentyl(pyridin-2-yl)methyl)-5-(3,5-dimethylisoxazol-4-yl)-1H-pyrrolo[2,3-b]pyridin-3-yl)picolinate]", "IC50": "0.1 to 1000"}
{"smiles": "Cc1noc(C)c1-c1cnc2c(c1)c(-c1ccnc(C(=O)O)c1)cn2C(C1CC1)C1CC1", "note": "[P-0041, 4-(1-(dicyclopropylmethyl)-5-(3,5-dimethylisoxazol-4-yl)-1H-pyrrolo[2,3-b]pyridin-3-yl)picolinic acid]", "IC50": "0.1 to 1000"}
{"smiles": "Cc1noc(C)c1-c1cnc2c(c1)c(-c1ccnc(C(=O)O)c1)cn2Cc1ccccc1", "note": "[P-0042, 4-(1-benzyl-5-(3,5-dimethylisoxazol-4-yl)-1H-pyrrolo[2,3-b]pyridin-3-yl)picolinic acid]", "IC50": "0.1 to 1000"}
{"smiles": "Cc1noc(C)c1-c1cnc2c(c1)c(-c1ccnc(C(=O)O)c1)cn2C(c1ccccn1)C1CCC1", "note": "(centres unmarked) [P-0043, 4-(1-(cyclobutyl(pyridin-2-yl)methyl)-5-(3,5-dimethylisoxazol-4-yl)-1H-pyrrolo[2,3-b]pyridin-3-yl)picolinic acid]", "IC50": "0.1 to 1000"}
{"smiles": "Cc1noc(C)c1-c1cnc2c(c1)c(-c1ccnc(C(=O)O)c1)cn2Cc1ccccn1", "note": "[P-0044, 4-(5-(3,5-dimethylisoxazol-4-yl)-1-(pyridin-2-ylmethyl)-1H-pyrrolo[2,3-b]pyridin-3-yl)picolinic acid]", "IC50": "0.1 to 1000"}
{"smiles": "Cc1noc(C)c1-c1cnc2c(c1)c(-c1ccnc(C(=O)O)c1)cn2CC1CC1", "note": "[P-0045, 4-(1-(cyclopropylmethyl)-5-(3,5-dimethylisoxazol-4-yl)-1H-pyrrolo[2,3-b]pyridin-3-yl)picolinic acid]", "IC50": "0.1 to 1000"}
{"smiles": "COC(=O)c1cc(-c2cn(C(c3ccccn3)C3CCC3)c3ncc(-c4c(C)noc4C)cc23)ccn1", "note": "(centres unmarked) [P-0046, methyl 4-(1-(cyclobutyl(pyridin-2-yl)methyl)-5-(3,5-dimethylisoxazol-4-yl)-1H-pyrrolo[2,3-b]pyridin-3-yl)picolinate]", "IC50": "0.1 to 1000"}
{"smiles": "COc1cc(C(=O)O)ccc1-c1cn([C@@H](C)c2ccccn2)c2ncc(-c3c(C)noc3C)cc12", "note": "[P-0047, (S)-4-(5-(3,5-dimethylisoxazol-4-yl)-1-(1-(pyridin-2-yl)ethyl)-1H-pyrrolo[2,3-b]pyridin-3-yl)-3-methoxybenzoic acid]", "IC50": "0.1 to 1000"}
{"smiles": "Cc1noc(C)c1-c1cnc2c(c1)c(-c1cccc(C(=O)O)c1)cn2Cc1ccccc1", "note": "[P-0048, 3-(1-benzyl-5-(3,5-dimethylisoxazol-4-yl)-1H-pyrrolo[2,3-b]pyridin-3-yl)benzoic acid]", "IC50": "0.1 to 1000"}
{"smiles": "Cc1noc(C)c1-c1cnc2c(c1)c(-c1cccc(C(=O)O)c1)cn2Cc1ccccn1", "note": "[P-0049, 3-(5-(3,5-dimethylisoxazol-4-yl)-1-(pyridin-2-ylmethyl)-1H-pyrrolo[2,3-b]pyridin-3-yl)benzoic acid]", "IC50": "0.1 to 1000"}
{"smiles": "Cc1noc(C)c1-c1cnc2c(c1)c(-c1cccc(C(=O)O)c1)cn2CC1CC1", "note": "[P-0050, 3-(1-(cyclopropylmethyl)-5-(3,5-dimethylisoxazol-4-yl)-1H-pyrrolo[2,3-b]pyridin-3-yl)benzoic acid]", "IC50": "0.1 to 1000"}
{"smiles": "Cc1noc(C)c1-c1cnc2c(c1)c(C#CC(C)(C)C(=O)O)cn2Cc1ccccc1", "note": "[P-0051, 4-(1-benzyl-5-(3,5-dimethylisoxazol-4-yl)-1H-pyrrolo[2,3-b]pyridin-3-yl)-2,2-dimethylbut-3-ynoic acid]", "IC50": "0.1 to 1000"}
{"smiles": "COC(=O)c1cc(-n2cc(Cc3ccccc3)c3ncc(-c4c(C)noc4C)cc32)ccn1", "note": "[P-0052, methyl 4-(3-benzyl-6-(3,5-dimethylisoxazol-4-yl)-1H-pyrrolo[3,2-b]pyridin-1-yl)picolinate]", "IC50": "0.1 to 1000"}
{"smiles": "Cc1noc(C)c1-c1cnc2c(Cc3ccccc3)cn(-c3ccnc(C(=O)O)c3)c2c1", "note": "[P-0053, 4-(3-benzyl-6-(3,5-dimethylisoxazol-4-yl)-1H-pyrrolo[3,2-b]pyridin-1-yl)picolinic acid]", "IC50": "0.1 to 1000"}
{"smiles": "Cc1noc(C)c1-c1cnc2c(C(=O)c3ccccc3)cn(-c3ccnc(C(=O)O)c3)c2c1", "note": "[P-0054, 4-(3-benzoyl-6-(3,5-dimethylisoxazol-4-yl)-1H-pyrrolo[3,2-b]pyridin-1-yl)picolinic acid]", "IC50": "0.1 to 1000"}
{"smiles": "Cc1noc(C)c1-c1cnc2c(c1)c(-c1ccc(C(=O)O)cc1OC(F)(F)F)cn2-c1ccc(C2CC2)nc1", "note": "[P-0388, 4-(1-(6-cyclopropylpyridin-3-yl)-5-(3,5-dimethylisoxazol-4-yl)-1H-pyrrolo[2,3-b]pyridin-3-yl)-3-(trifluoromethoxy)benzoic acid]", "IC50": "0.1 to 1000"}
{"smiles": "Cc1noc(C)c1-c1cnc2c(c1)c(-c1ccc(C(=O)O)cc1OC(F)(F)F)cn2C1CCC(C#N)C1", "note": "(centres unmarked) [P-0389, 4-(1-(3-cyanocyclopentyl)-5-(3,5-dimethylisoxazol-4-yl)-1H-pyrrolo[2,3-b]pyridin-3-yl)-3-(trifluoromethoxy)benzoic acid]", "IC50": "0.1 to 1000"}
{"smiles": "Cc1noc(C)c1-c1cnc2c(c1)c(-c1c(Cl)cc(C(=O)O)cc1OCC(F)F)cn2-c1cnc(C2CC2)nc1", "note": "[P-0390, 3-chloro-4-(1-(2-cyclopropylpyrimidin-5-yl)-5-(3,5-dimethylisoxazol-4-yl)-1H-pyrrolo[2,3-b]pyridin-3-yl)-5-(2,2-difluoroethoxy)benzoic acid]", "IC50": "0.1 to 1000"}
{"smiles": "Cc1noc(C)c1-c1cnc2c(c1)c(-c1c(Cl)cc(C(=O)O)cc1OC1CCC1)cn2-c1cnc(C2CC2)nc1", "note": "[P-0391, 3-chloro-5-cyclobutoxy-4-(1-(2-cyclopropylpyrimidin-5-yl)-5-(3,5-dimethylisoxazol-4-yl)-1H-pyrrolo[2,3-b]pyridin-3-yl)benzoic acid]", "IC50": "0.1 to 1000"}
{"smiles": "COc1ncc(-n2cc(-c3ccc(C(=O)O)cc3OC(F)(F)F)c3cc(-c4c(C)noc4C)cnc32)cn1", "note": "[P-0392, 4-(5-(3,5-dimethylisoxazol-4-yl)-1-(2-methoxypyrimidin-5-yl)-1H-pyrrolo[2,3-b]pyridin-3-yl)-3-(trifluoromethoxy)benzoic acid]", "IC50": "0.1 to 1000"}
{"smiles": "Cc1noc(C)c1-c1cnc2c(c1)c(-c1c(Cl)cc(C(=O)O)cc1OC(C)C)cn2-c1cnc(C2CC2)nc1", "note": "[P-0393, 3-chloro-4-(1-(2-cyclopropylpyrimidin-5-yl)-5-(3,5-dimethylisoxazol-4-yl)-1H-pyrrolo[2,3-b]pyridin-3-yl)-5-isopropoxybenzoic acid]", "IC50": "0.1 to 1000"}
{"smiles": "Cc1noc(C)c1-c1cnc2c(c1)c(-c1c(F)cc(C(=O)O)cc1OC1CC1)cn2C(C1CC1)C1CC1", "note": "[P-0394, 3-cyclopropoxy-4-(1-(dicyclopropylmethyl)-5-(3,5-dimethylisoxazol-4-yl)-1H-pyrrolo[2,3-b]pyridin-3-yl)-5-fluorobenzoic acid]", "IC50": "0.1 to 1000"}
{"smiles": "Cc1noc(C)c1-c1cnc2c(c1)c(-c1c(Cl)cc(C(=O)O)cc1OC(F)(F)F)cn2-c1ncccc1C#N", "note": "[P-0395, 3-chloro-4-(1-(3-cyanopyridin-2-yl)-5-(3,5-dimethylisoxazol-4-yl)-1H-pyrrolo[2,3-b]pyridin-3-yl)-5-(trifluoromethoxy)benzoic acid]", "IC50": "0.1 to 1000"}
{"smiles": "Cc1noc(C)c1-c1cnc2c(c1)c(-c1c(Cl)cc(C(=O)O)cc1OC1CCC1)cn2-c1ncccc1C#N", "note": "[P-0396, 3-chloro-4-(1-(3-cyanopyridin-2-yl)-5-(3,5-dimethylisoxazol-4-yl)-1H-pyrrolo[2,3-b]pyridin-3-yl)-5-cyclobutoxybenzoic acid]", "IC50": "0.1 to 1000"}
{"smiles": "Cc1noc(C)c1-c1cnc2c(c1)c(-c1c(F)cc(C(=O)O)cc1OC1CC1)cn2C1CCOCC1", "note": "[P-0397, 3-cyclopropoxy-4-(5-(3,5-dimethylisoxazol-4-yl)-1-(tetrahydro-2H-pyran-4-yl)-1H-pyrrolo[2,3-b]pyridin-3-yl)-5-fluorobenzoic acid]", "IC50": "0.1 to 1000"}
{"smiles": "CCOc1nc(C(=O)O)c(Cl)cc1-c1cn(C2CCOCC2)c2ncc(-c3c(C)noc3C)cc12", "note": "[P-0398, 3-chloro-5-(5-(3,5-dimethylisoxazol-4-yl)-1-(tetrahydro-2H-pyran-4-yl)-1H-pyrrolo[2,3-b]pyridin-3-yl)-6-ethoxypicolinic acid]", "IC50": "0.1 to 1000"}
{"smiles": "Cc1noc(C)c1-c1cnc2c(c1)c(-c1ccc(C(=O)O)cc1OC(F)(F)F)cn2-c1ccc(=O)n(C)c1", "note": "[P-0399, 4-(5-(3,5-dimethylisoxazol-4-yl)-1-(1-methyl-6-oxo-1,6-dihydropyridin-3-yl)-1H-pyrrolo[2,3-b]pyridin-3-yl)-3-(trifluoromethoxy)benzoic acid]", "IC50": "0.1 to 1000"}
{"smiles": "CCc1noc(C)c1-c1cnc2c(c1)c(-c1ccc(C(=O)O)cc1OC(F)(F)F)cn2C1CCOCC1", "note": "[P-0400, 4-(5-(3-ethyl-5-methylisoxazol-4-yl)-1-(tetrahydro-2H-pyran-4-yl)-1H-pyrrolo[2,3-b]pyridin-3-yl)-3-(trifluoromethoxy)benzoic acid]", "IC50": "0.1 to 1000"}
